{
  "source": "paper PMC5107951",
  "about": "(Scientific Reports, 2016)",
  "format_in_all_cases": "binding",
  "key": {"α7 nAChR [1]": {"target": "T1, α7 nAChR (Homo sapiens, UniProt P36544)", "T1 sequence (P36544 23-502 limits assumed)": "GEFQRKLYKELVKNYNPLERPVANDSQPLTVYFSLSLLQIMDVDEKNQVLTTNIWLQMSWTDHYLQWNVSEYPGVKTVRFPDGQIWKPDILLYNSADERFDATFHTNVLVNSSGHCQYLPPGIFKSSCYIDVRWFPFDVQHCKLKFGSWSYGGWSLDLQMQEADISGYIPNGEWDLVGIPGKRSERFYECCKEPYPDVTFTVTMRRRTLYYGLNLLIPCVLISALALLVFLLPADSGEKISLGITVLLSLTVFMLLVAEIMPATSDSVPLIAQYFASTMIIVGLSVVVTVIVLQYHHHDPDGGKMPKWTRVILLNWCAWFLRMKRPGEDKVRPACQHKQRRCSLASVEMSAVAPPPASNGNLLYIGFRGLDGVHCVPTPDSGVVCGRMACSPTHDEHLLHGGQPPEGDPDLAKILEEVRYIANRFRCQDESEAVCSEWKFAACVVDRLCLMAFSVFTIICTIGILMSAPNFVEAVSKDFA"}, "α7 nAChR [2]": {"target": "T1, α7 nAChR", "remark": "listed apart in the source"}, "α7 nAChR [3]": {"target": "T1, α7 nAChR", "experiment": "cell-based"}},
  "data": [
    {"substance": "α-cobratoxin", "values": [
      {"measurement": "inhibition of [125I]-PnIA[R5, R9, L10, R14] binding (in words)", "setting": "α7 nAChR [1]", "value": "failed to achieve a 50% inhibition"},
      {"measurement": "removal of [125I]-PnIA[R9, L10] from α7 nAChR (in words)", "setting": "α7 nAChR [2]", "value": "could not completely remove the radioligand from the target even after a 2-hour incubation"},
      {"measurement": "Hill coefficient, “replaceable” binding at the orthosteric site", "setting": "α7 nAChR [3]", "value": "1.0 ± 0.3"},
      {"measurement": "radioligand [125I]-PnIA[R9, L10] not displaced", "setting": "α7 nAChR [3]", "value": "≈ 25%"},
      {"measurement": "IC50", "setting": "α7 nAChR [3]; read-out: IC50 of [125I]-PnIA[R9, L10] binding inhibition, “replaceable” binding at the orthosteric site", "value": "11 ± 3", "unit": "nM"}
    ]}
  ]
}
